Measurements from patent US10189865B1, “Gold(I) complexes, pharmaceutical compositions thereof, and methods of treating proliferative disorders” (King Fahd University of Petroleum and Minerals, priority 2018, dated 2019).

Columns and labels:
Assay type in all cases: cell-based
[1] = system: HCT15 (human colon cancer) cell line; experiment: MTT in vitro cytotoxicity assay, HCT15; conditions: 24 h incubation with complex, three independent experiments, read-out: IC50 against HCT15
Procedure: (§1) The cells were seeded at 3×10^3 cells/well in 100 μL of Dulbecco's Modified Eagle's Medium (DMEM) containing 10% fetal bovine serum (FBS) in a 96-well tissue culture plate and incubated for 72 h at 37° C., 5% CO2 and 90% relative humidity in a CO2 incubator. After incubation, 100 μL of 100, 50, 25 and 12.5 μM solutions of cisplatin and gold(I) complexes prepared in Dulbecco's Modified Eagle's Medium (DMEM) was each added to the cells and the cultures were incubated for 24 h. The medium in the wells was casted off, and 100 μL of DMEM containing MTT (0.5 mg/mL) was added to the wells, which were subsequently incubated in the CO2 incubator at 37° C. in the dark for 4 h. After incubation, purple-colored formazan produced by the cells appeared as dark crystals in the bottom of the wells. The culture medium was carefully removed from each well to prevent disruption of the monolayer, and 100 μL of dimethyl sulfoxide (DMSO) was added in each well. The solution in the wells was thoroughly mixed to dissolve the formazan crystals which produced a purple solution. The absorbance of the 96 well-plates was measured at 570 nm with Labsystems Multiskan EX ELISA reader against a reagent blank. The experimental results were calculated as micro-molar concentration for 50% cell growth inhibition (IC50) of each drug. The MTT assay was carried out in three independent experiments, each in triplicate. […]

[2] = system: A549 (human lung carcinoma) cell line; experiment: MTT in vitro cytotoxicity assay, A549; conditions: 24 h incubation with complex, three independent experiments, read-out: IC50 against A549
Procedure: as §1

[3] = system: MCF7 (human breast adenocarcinoma) cell line; experiment: MTT in vitro cytotoxicity assay, MCF7; conditions: 24 h incubation with complex, three independent experiments, read-out: IC50 against MCF7
Procedure: as §1

Compound | IC50 [1] [µM] | IC50 [2] [µM] | IC50 [3] [µM]
N.N.[Cl][Pt][Cl] [Cisplatin, cisplatin, reference compound] | 33 ± 2 |  | 
[Au(IPr)(ImSe]PF6 [Complex (II)] | 33 ± 1 | 47 ± 1 | 43 ± 2
